Starred links: 1 amine or outer side, 2 acyl side, 3 side chain; linkers in the order of their positions; H or OH if unused. Residues, ends and D or L forms follow the SMILES beside them. *: point of attachment. AFC = O=c1cc(C(F)(F)F)c2ccc(N*)cc2o1; Morpholide = C1CN(*)CCO1; Cbz = O=C(OCc1ccccc1)*; CO = O=C([*:1])[*:2]; CH2F = FC*
Columns and labels:
[1] = target: purified Taenia solium cysteine protease; test: Competitor assay: vehicle inhibition of cleavage of high Vmax AFC substrate cocktails (Step III); type: biochemical; details: preliminary results, in comparison to the battery of substrates
Procedure: (We employed “Vmax” here although Kcat could also be used). Due to the lower number of substrates, a percentage was not chosen for the “BOTTOM %” substrates. Alternately, all substrates which were not cleaved as determined by a value of 10 μM/hr or less, were chosen to be tested in this step for competitive ability. From this point forth, the term “vehicle” will represent low Vmax substrates that were capable of inhibiting cleavage of the percent cocktails. In this instance, we tested for “vehicles” which inhibited cleavage of the TOP 1.4% cocktail (they were delivered into the active site). Based upon our results from Step II, the top 1.4% cocktail was composed of Z-Phe-Arg-AFC, the highest cleaved substrate.
The experiment began with a competitor test between the noncleaved low Vmax substrates and the highest Vmax substrate, Z-Phe-Arg-AFC. Concentrations were varied between the low Vmax substrate and Z-Phe-Arg-AFC, as described above under “refinement of assay” until a relative inhibition profile was obtained.
The mixture was allowed to equilibrate for a period of 30 minutes. Finally, active purified enzyme was added to the tubes at a concentration which was always 50 times less than the concentration of the high and low Vmax substrates, in order to insure saturation conditions. This concentration varied from purification to purification and the amount added depended upon the yield and specific activity of the purified protease.
Positive controls were set up similarly as described for test controls, except that solvent was added in substitution for the low Vmax substrate (in a volume equal to the low Vmax volume addition). All of the substrates could be dissolved in dimethylsulfoxide (DMSO), and therefore, this was the solvent of choice. Negative controls were set up by adding the low Vmax and the high Vmax substrate in a tube without the protease. All potential non-proteolytic induced liberation of AFC was therefore controlled for in this tube (a feature which also insured stability of the AFC substrates, since these substrates will freely liberate AFC when unstable). A tube set will be established for this negative control.
All controls were set up in triplicate, and experiments repeated a minimum of five times. The assays were incubated at 37° C., for 18 hours overnight.
Percent inhibition was calculated as: [formula]
A 2.9% cocktail of the high Vmax substrates was made. This was composed of Z-FR-AFC and the second most cleaved substrate, Z-FAR-AFC. The vehicles promoted from the initial screenings above were again tested for competitive inhibition ability with the new cocktails. Their concentrations were set identically to those which were “fixed” in the previous protocols. […]

Taenia crassiceps cysts = test: Short-term prophylactic protection of BALB/c mice from cysticercosis infection; type: in vivo; details: pre-injected two days, 10 T. crassiceps cysts/mouse, dosed daily four weeks, intraperitoneal; vs untreated controls
Procedure: FIG. 8. […] Each treated mouse was pre-injected intraperitoneally with inhibitor for two days. During treatment phase, each treated mouse received 1.48×10^−2 μg/μl of N2 daily for three weeks and every other day during the last week. Injections were carried out in 150 μl of dimethyl sulfoxide for each mouse. Both treated groups and positive controls were challenged intraperitoneally with 10 Taenia crassiceps cysts in 200 μl 0.15M PBS at the time of initial infection. After one month of infection, both groups were euthanized and cysts removed by washing with sterile 0.15M PBS. A minimum of two attached cysts were scored as multilobed (ML). […] (B) Graphically represents the effect of protease inhibitor treatment of BALB/c mice challenged with Taenia crassiceps cysts over a long-term period. Mice were divided into treated and untreated groups (5 mice/group).Each mouse in the treated group was pre-injected intraperitoneally with inhibitor for two days. […] Cysts were then counted by visual inspection. […]
Based upon the premise that the cyst wall cysteine protease may serve a critical finction to the life cycle of the Taenia cyst, we tested our most efficacious inhibitors, LLL-FMK and LLY-FMK (K-Pyr was used as a control), for their abilities to protect mice from cysticercosis infection. […] After one month, the mice were euthanized and the cysts counted. […]

T crassiceps cysts = test: Therapeutic study in BALB/c mice infected with T crassiceps cysts; type: in vivo, Taenia crassiceps; details: inhibitor treatment began two weeks after infection
From the text: Mice in all groups survived without noticeable side effects (e.g., coat condition, tail dragging or paresis, etc).

## CC(C)C[C@H](NC(=O)N1CCOCC1)C(=O)N[C@@H](Cc1ccc(O)cc1)C(=O)Nc1ccc2c(C(F)(F)F)cc(=O)oc2c1 [Mu-LY-AFC, Mu-Leu-Tyr-AFC] ({Morpholide-CO}-Leu-Tyr-{AFC})
[1]
  Ki of vehicles (ranking; values not reported): lowest Ki values

## CC(C)C[C@H](NC(=O)[C@H](CC(C)C)NC(=O)[C@H](CC(C)C)NC(=O)OCc1ccccc1)C(=O)CF [Z-LLL-FMK, Z-Leu-Leu-Leu-fluoromethylketone] (Cbz-Leu-Leu-Leu-CH2F)
Taenia crassiceps cysts
  % Prophylactic protection of BALB/c mice: 100%
T crassiceps cysts
  % Therapeutic protection of BALB/c mice: 60%

— patent publication US20030077653A1, “Method for the identification of active site protease inactivators” (The University of Georgia Research Foundation, Inc., priority 2000, published 2003)
